Values after ≈ are worked out from the molar mass of the structure shown. Values joined by “and” are separate entries in the source; they are usually repeats but may differ in a detail not shown here. Equal entries are not always repeated. Where two headings read alike, the source gives them in different places.
Tests used:
[1] = system: Human Erythroleukemia Cells (HEL); experiment: Cytotoxicity; format: cell-based; settings: morphological changes detected microscopically
[2] = system: Simplex herpes 1 KOS virus; experiment: Antiviral activity; format: cell-based, Simplex herpes 1 virus; settings: read-out: MIC50 Simplex herpes 1 KOS virus
[3] = system: Simplex herpes 2 G virus; experiment: Antiviral activity; format: cell-based, Simplex herpes 2 virus; settings: read-out: MIC50 Simplex herpes 2 G virus
[4] = system: Vesicular stomatitis virus; experiment: microbe, parasite or virus in culture; format: cell-based; settings: read-out: MIC50 Vesicular stomatitis virus
[5] = system: Simplex herpes 1 TK-KOS ACVr virus; experiment: Antiviral activity; format: cell-based, Simplex herpes 1 virus; settings: read-out: MIC50 Simplex herpes 1 TK-KOS ACVr virus
[6] = system: Feline coronavirus; experiment: Antiviral activity; format: cell-based; settings: for MIC50: Alphacoronavirus 1, read-out: MIC50 Feline coronavirus; for MIC50 Feline coronavirus: CRFK cells
[7] = system: Cervical Cancer Cells (HeLa); experiment: Cytotoxicity in HeLa cells; format: cell-based
[8] = system: Vesicular stomatitis virus; experiment: microbe, parasite or virus in culture; format: cell-based; settings: read-out: MIC50 Vesicular stomatitis virus; remark: listed apart in the source
[9] = system: Respiratory syncytial virus; experiment: Antiviral activity; format: cell-based; settings: human respiratory syncytial virus, read-out: MIC50 Respiratory syncytial virus
[10] = system: Parainfluenza 3 virus; experiment: Antiviral activity; format: cell-based; settings: read-out: MIC50 Parainfluenza 3 virus
[11] = system: Reovirus 1; experiment: Antiviral activity; format: cell-based; settings: Mammalian orthoreovirus 1, read-out: MIC50 Reovirus 1
[12] = system: Sindbis virus; experiment: Antiviral activity; format: cell-based; settings: read-out: MIC50 Sindbis virus
[13] = system: Cocker Spaniel Hepatocytes (MDCK); experiment: Cytotoxicity in MDCK cells; format: cell-based
[14] = system: Influenza A H1N1 virus; experiment: Antiviral activity; format: cell-based; settings: for MIC50: Influenza A virus
[15] = system: Influenza A H3N2 virus; experiment: Antiviral activity; format: cell-based; settings: for MIC50: Influenza A virus
[16] = system: Influenza B virus; experiment: Antiviral activity; format: cell-based; settings: for MIC50: Influenza B virus
[17] = system: African Green Monkey Epithelial Kidney Cells (VERO); experiment: Cytotoxicity in VERO cells; format: cell-based
[18] = system: Feline Kidney Cells (CRFK); experiment: Cytotoxicity in CRFK cells; format: cell-based
[19] = system: Feline herpes virus; experiment: Antiviral activity; format: cell-based; settings: for MIC50: read-out: MIC50 Feline herpes virus
[20] = Cytotoxicity in MDCK cells; format: cell-based, Cocker Spaniel; settings: dog
[21] = system: Respiratory syncytial virus; settings: literature data; cited from earlier work
[22] = system: Parainfluenza 3 virus; settings: literature data; cited from earlier work
[23] = system: Influenza A H1N1 virus; settings: previously reported; cited from earlier work
[24] = system: Influenza A H3N2 virus; settings: literature; cited from earlier work
[25] = system: Influenza B virus; settings: literature; cited from earlier work
[26] = MDCK cells, colorimetric assessment
[27] = MDCK cells, visual assessment (microscopy)
[28] = H1N1, read-out: MIC50 Influenza A H1N1 virus CA
[29] = H1N1, read-out: MIC50 Influenza A H1N1 virus VA
[30] = H3N2, read-out: MIC50 Influenza A H3N2 virus CA
[31] = H3N2, read-out: MIC50 Influenza A H3N2 virus VA
[32] = read-out: MIC50 Influenza B virus CA
[33] = read-out: MIC50 Influenza B virus VA

Compound | MCC (minimum cytotoxic concentration) [1] | MIC50 [2] | MIC50 [3] | MIC50 [4] | MIC50 [5] | MCC [7] | MIC50 [8] | MIC50 [9] | MIC50 [10] | MIC50 [11] | MIC50 [12] | MCC [13] | CC50 [20] | MIC50 [14, 28] | MIC50 [14, 29] | MIC50 [15, 30] | MIC50 [15, 31] | MIC50 [16, 32] | MIC50 [16, 33] | further results
Nc1nc(O)c2ncn(COC(CO)CO)c2n1 [Ganciclovir] | >100 µM | 0.08 µM (≈ 0.0204 µg/mL) | 0.03 µM (≈ 0.00766 µg/mL) | > 100 µM | 0.2 µM (≈ 0.051 µg/mL) | – | – | – | – | – | – | – | – | – | – | – | – | – | – | MIC50 [6]: > 100 µM
Nc1ccn(C[C@@H](CO)OCP(=O)(O)O)c(=O)n1 [Cidofovir] | >250 µM | 6 µM (≈ 1.68 µg/mL) | 2 µM (≈ 0.558 µg/mL) | > 250 µM | 6 µM (≈ 1.68 µg/mL) | – | – | – | – | – | – | – | – | – | – | – | – | – | – | –
Nc1ncnc2c1ncn2C[C@H](O)CO [(S)-DHPA, 9-((2S)-2,3-Dihydroxypropyl)adenine] | – | – | – | – | – | >250 µM | > 250 µM | > 250 µM | > 250 µM | > 250 µM | > 250 µM | – | – | – | – | – | – | – | – | –
N[C@H]1C(C(=O)O)=CC=C[C@@H]1O (relative stereo) [HHA, (2S,3S)-trans-3-Hydroxy-2,3-dihydroanthranilic acid] | – | – | – | – | – | – | – | – | – | – | – | – | – | – | – | – | – | – | – | MIC50 Feline coronavirus [6]: 13.0 µM (≈ 2.02 µg/mL)
O=c1[nH]c(=O)n([C@H]2C[C@H](O)[C@@H](CO)O2)cc1/C=C/Br [Brivudine] | >250 µM | 0.04 µM (≈ 0.0133 µg/mL) | 183 µM (≈ 61 µg/mL) | > 250 µM | 2 µM (≈ 0.666 µg/mL) | – | – | – | – | – | – | – | – | – | – | – | – | – | – | –
CC(N)C12CC3CC(CC(C3)C1)C2 (centres unmarked) [Remantadine] | – | – | – | – | – | – | – | – | – | – | – | >200 µM | – | – | – | – | – | – | – | MIC50 Influenza A H1N1 virus CA [14, 26]: 10.3 µM (≈ 1.85 µg/mL); MIC50 Influenza A H1N1 virus VA [14, 27]: 20 µM (≈ 3.59 µg/mL); MIC50 Influenza A H3N2 virus CA [15, 26]: 0.3 µM (≈ 0.0538 µg/mL); MIC50 Influenza A H3N2 virus VA [15, 27]: 0.3 µM (≈ 0.0538 µg/mL); MIC50 Influenza B virus CA [16, 26]: >200 µM; MIC50 Influenza B virus VA [16, 27]: >200 µM
CCOC(=O)c1c(CSc2ccccc2)n(C)c2cc(Br)c(O)c(CN(C)C)c12.Cl.O [Umifenovir, Ethyl 6-bromo-4-(dimethylamino)methyl-5-hydroxy-1-methyl-2-(phenylsulfanyl)methyl-1 H -indole-3-carboxylate hydrochloride monohydrate] | 188 μM and 100 μg/ml | > 37 µM and > 20 µg/mL | > 37 µM and > 20 µg/mL | > 37 µM and > 20 µg/mL | > 37 µM and > 20 µg/mL | 37 μM and 20 μg/ml | > 7.5 µM and > 4 µg/mL | > 7.5 µM and > 4 µg/mL | > 190 µM and > 100 µg/mL | > 190 µM and > 100 µg/mL | > 190 µM and > 100 µg/mL | 19.6 μM and 10.4 μg/ml | 37 µM and 20 µg/mL | > 7.5 µM and > 4 µg/mL | > 7.5 µM and > 4 µg/mL | > 7.5 µM and > 4 µg/mL | > 7.5 µM and > 4 µg/mL | > 7.5 µM and > 4 µg/mL | > 7.5 µM and > 4 µg/mL | MCs [17]: > 190 μM and > 100 μg/ml; MCC [18]: 19.0 μM and 10.1 μg/ml; MCC ([18]; listed as umifenovir): 10.1 µg/mL; MIC50 [6]: > 7.5 µM and > 4 µg/mL; MIC50 [19]: > 7.5 µM and > 4 µg/mL; MCC ([13]; listed as umifenovir): 10.4 µg/mL; MIC50 respiratory syncytial virus [21]: 8.7 µg/mL; MIC50 parainfluenza 3 virus [22]: 4.9 µg/mL; MIC50 influenza A H1N1 virus replication [23]: 2.7 to 4.0 µg/mL; MIC50 H3N2 influenza A virus replication [24]: 6.7 µg/mL; MIC50 influenza B virus replication [25]: 7.1 µg/mL
CC(=O)N[C@H]1[C@H]([C@H](O)[C@H](O)CO)OC(C(=O)O)=C[C@@H]1N=C(N)N [Zanamivir] | – | – | – | – | – | – | – | – | – | – | – | >100 µM | > 100 µM | 1.2 µM (≈ 0.399 µg/mL) | 0.8 µM (≈ 0.266 µg/mL) | 2 µM (≈ 0.665 µg/mL) | 4 µM (≈ 1.33 µg/mL) | 0.3 µM (≈ 0.0997 µg/mL) | – | –
NC(=O)c1ncn([C@@H]2O[C@H](CO)[C@@H](O)[C@H]2O)n1 [Ribavirin] | – | – | – | – | – | >250 µM | 10 µM (≈ 2.44 µg/mL) | 10 µM (≈ 2.44 µg/mL) | 50 µM (≈ 12.2 µg/mL) | > 250 µM | > 250 µM | >100 µM | > 100 µM | 6.4 µM (≈ 1.56 µg/mL) | 9 µM (≈ 2.2 µg/mL) | 10.7 µM (≈ 2.61 µg/mL) | 9 µM (≈ 2.2 µg/mL) | 5.9 µM (≈ 1.44 µg/mL) | 20 µM (≈ 4.88 µg/mL) | –
3'-(1-Carboxy-1-phosphonoxyethoxy)uridinediphosphate-N-acetylglucosamine [UDA] | – | – | – | – | – | – | – | – | – | – | – | – | – | – | – | – | – | – | – | MIC50 Feline coronavirus [6]: 1.1 µM; MIC50 Feline herpes virus ([19]; CRFK cells): 0.8 µM
CCOC(=O)c1c([C@@H]2C[C@H]2c2ccccc2)n(C)c2ccc(O)cc12 (relative stereo) [Compound 3, ethyl 5-hydroxy-1-methyl-2-(trans-2-phenylcyclopropyl)-1H-indole-3-carboxylate] | > 300 μM and > 100 μg/ml | > 300 µM and > 100 µg/mL | > 300 µM and > 100 µg/mL | > 300 µM and > 100 µg/mL | > 300 µM and > 100 µg/mL | > 300 μM and > 100 μg/ml | > 300 µM and > 100 µg/mL | > 300 µM and > 100 µg/mL | > 300 µM and > 100 µg/mL | > 300 µM and > 100 µg/mL | > 300 µM and > 100 µg/mL | – | 59.6 µM and 20 µg/mL | > 12 µM and > 4 µg/mL | > 12 µM and > 4 µg/mL | > 12 µM and > 4 µg/mL | > 12 µM and > 4 µg/mL | > 12 µM and > 4 µg/mL | > 12 µM and > 4 µg/mL | MIC50 [6]: > 300 µM and > 100 µg/mL; MIC50 [19]: > 300 µM and > 100 µg/mL
NC12CC3CC(CC(C3)C1)C2 [Amantadine] | – | – | – | – | – | – | – | – | – | – | – | >200 µM | > 200 µM | 83.9 µM (≈ 12.7 µg/mL) | 89 µM (≈ 13.5 µg/mL) | 1.6 µM (≈ 0.242 µg/mL) | 4 µM (≈ 0.605 µg/mL) | > 200 µM | > 200 µM | –
Nc1nc2c(ncn2COCCO)c(=O)[nH]1 [Acyclovir] | >250 µM | 0.2 µM (≈ 0.045 µg/mL) | 0.08 µM (≈ 0.018 µg/mL) | 250 µM (≈ 56.3 µg/mL) | 2 µM (≈ 0.45 µg/mL) | – | – | – | – | – | – | – | – | – | – | – | – | – | – | –
